# Laboratory results reported in patent US4203253A, “Process for increasing oleoresin synthesis in pinus species” (priority 1979, dated 1980).
# Where two headings read alike, the source gives them in different places.
# Columns and labels:
# rats = conditions: cited from earlier work
# [1] = system: slash pine (Pinus elliottii Engelm. var. elliottii); format: in vivo; conditions: 0% 2-chloroethylphosphonic acid, 1.6 years
# [2] = system: endogenous ethylene production; conditions: systemically applied; cited from earlier work
# [3] = system: slash pine (Pinus elliottii Engelm. var. elliottii); format: in vivo; conditions: for Rosin yield: 6 months, extracted dry weight
# Procedure: (§1) On Sept. 14, 1973, replicate slash pine (Pinus elliottii Engelm. var. elliottii) were treated with 5 milliliters of either 1 percent (wt.) paraquat, 1 percent (wt.) diquat, 1percent (wt.) diquat plus 5 percent (wt.) 2-chloroethylphosphonic acid or 5 percent (wt.) 2-chloroethylphosphonic acid solutions placed in a bore hole. Each type of treatment was applied to 25 trees selected at random. One tree from each treatment was cut in January 1974. […] Six trees from each treatment were cut in March of 1974, approximately 6 months after treatment.
# [4] = system: slash pine (Pinus elliottii Engelm. var. elliottii); assay: Oleoresin content and visible lightwood height in slash pines 26 months after treatment (Example IV, Table IV); format: in vivo; conditions: for Oleoresin content / Oleoresin content, average per unit total volume: 26 months; for Oleoresin content: extracted dry weight; for Visible lightwood height: 26 months after treatment
# Procedure: as §1
# [5] = system: slash pine (Pinus elliottii Engelm. var. elliottii); assay: Average lightwood heights in slash pines (Example V, Table V); format: in vivo; conditions: for Average lightwood height: 0% 2-chloroethylphosphonic acid
# Procedure: On October 6 and 7, 1975, a study was begun using replicate slash pine (Pinus elliottii Engelm. var. elliottii) to explore the action of 2-chloroethylphosphonic acid in combination with diquat and/or paraquat. Each tree in the study was treated three times. The first treatment was in October in 1975, the second in March of 1976, and the third in September of 1976. Each time 5 milliliters of a solution of 2-chloroethylphosphonic acid plus paraquat and/or diquat were applied to the tree in a bore hole angled to intersect approximately one-sixth of the trunk. After treatment, the bore hole was stoppered to prevent the escape of ethylene. The trees were cut during November and December of 1976.
# ^a Measured from point of treatment application.
# [6] = cited from earlier work
# [7] = system: slash pine (Pinus elliottii Engelm. var. elliottii); assay: Percent oleoresin in slash pine 2 1/2 years after treatment (Example II, Table II); format: in vivo; conditions: for Percent oleoresin: dry weight of section
# Procedure: Replicate 40-year-old-slash pine (Pinus elliottii Engelm. var. elliottii) were treated with 5-milliliter aliquotes of 5 percent 2-chloroethylphosphonic acid in bore holes 0.6 meter above the ground. The trees were harvested in March, 1976, 21/2 years after treatment. Analysis of total extractives was made for given portions of the bole beginning 0.5 meter below the point of treatment application (Table II).
# ^a Percentage based on the dry weight of that section of the tree.
# ^b Control trees were wounded and treated with water.
# [8] = system: red pine (Pinus resinosa); assay: Nonvolatile extractives and dry weight of treated red pine (Example I, Table I); format: in vivo; conditions: for Nonvolatile extractives, entire cross section: extracted dry weight
# Description: Replicate 20-year-old plantation-grown red pine (Pinus resinosa) of a given diameter class were coned with a watertight cup. Three-hundred milliliters of 2-chloroethylphosphonic acid in various concentrations were placed in the cups, and shallow cuts one-third the circumference were made with a chisel into the xylem portion of the bole under the solution, at approximately 1.5 meters above the ground level. The treatment solution was normally adsorbed within a 24-hour period; this depended, however, on climatic conditions such as temperature and relative humidity. Trees were sacrificed 6 months after treatment and analyzed for nonvolatile extractives at given distances from the point of application, over the entire cross-section of the tree, except where noted (Table I).
# ^a Trees treated 5/26/76 and harvested 11/2/76. Each tree received 30
# milliliters of the indicated concentration of 2chloroethylphosphonic acid
# ^b Distance in cm from point of treatment application.
# ^c Ovendry weight/fresh weight.
# ^d Percentage nonvolatile extractives based on the extracted dry
# weight of a sample of the entire cross section.
# ^e Weight percentage 2chloroethylphosphonic acid in 300 milliliters o
# the aqueous treatment solution.
# ^f Percentage nonvolatile extractives isolated from the visible
# lightwood portion of each cross section based on the extracted dry weight
# basis of the visible lightwood portion of each cross section.
# ^g Control trees were wounded and treated with water in the same
# manner as the 2chloroethylphosphonic acidtreated trees.
# mice = conditions: asphyxiation by exclusion of oxygen; cited from earlier work
# [9] = distance above wound printed "0.05" m
# [10] = bipyridilium 0.5% (wt) in total
# [11] = 0.213 wt%, distance printed "+="
# [12] = 1.064 wt%, distance "30." [sic]
smiles,measurement,setting,value
C[n+]1ccc(-c2cc[n+](C)cc2)cc1 [paraquat],LD50 dosage,rats,100 mg/kg
same,Extractive content in total merchantable length,[1]; bipyridilium 0.5% (wt),14.8 lbs. extractives per average tree
same,Extractive content in total merchantable length,[1]; bipyridilium 2% (wt),17.1 lbs. extractives per average tree
same,endogenous ethylene production,[2],marked stimulation of endogenous ethylene production
same,respiration rates,[2],rapid increase in respiration rates
same,Rosin yield,[3]; 0 m above wound,8.1 Pct
same,Rosin yield,[3]; 0.5 m above wound,2.0 Pct
same,Height of oleoresin soaked wood (visible lightwood),"[3]; cut March 1974, approximately 6 months",less than in diquat-treated trees
same,Oleoresin content,[4]; 0.5-1 m above wound,12.2%
same,Oleoresin content,[4]; 1-1.5 m above wound,5.9%
same,Oleoresin content,[4]; 1.5-2.5 m above wound,3.7%
same,Oleoresin content,[4]; 2.5-4.5 m above wound,2.4%
same,Oleoresin content,[4]; 4.5-6.5 m above wound,2.0%
same,Visible lightwood height,[4],≤ 2 meters
same,"Oleoresin content, average per unit total volume",[4],4.6%
same,Oleoresin content,[4]; [9],10.7%
same,Average lightwood height,[5]; [10],1.4 meters
same,Average lightwood height,[5]; bipyridilium 2% (wt) in total,2.8 meters
O=P(O)(O)CCCl [2-chloroethylphosphonic acid],pH of a typical aqueous solution,[6]; typical aqueous solution,1.0 pH
same,pH above which hydrolysis begins and ethylene is released,[6]; xylem transport system of the tree,> 5 pH
same,LD50 dosage,rats,"4,229 mg/kg"
same,Rosin yield,[3]; 0 m above wound,2.6 Pct
same,Stimulation of visible lightwood formation,"[3]; 5 percent (wt.) alone, approximately 6 months",did not stimulate visible lightwood formation
same,Percent oleoresin,"[7]; 5% (wt), 0-3 m from application, 2 1/2 years",4.3%
same,Percent oleoresin,"[7]; 5% (wt), 3-6 m from application, 2 1/2 years",3.7%
same,Percent oleoresin,"[7]; 5% (wt), above 6 m from application, 2 1/2 years",3.1%
same,"Percent oleoresin, average","[7]; 5% (wt), average, dry weight, 2 1/2 years",3.6%
same,Visible lightwood,"[7]; 5 percent, 2 1/2 years after treatment",No visible lightwood was observed
same,Distance holding most of the increase in oleoresin production,"[7]; 5 percent, 5 ml in bore holes",0-3 meters
same,Increase of volatile versus nonvolatile oleoresins,"[7]; 5 percent, 5 ml in bore holes",A greater increase in the volatile (turpentine) than in the nonvolatile (resin) oleoresins
same,Dry weight (ovendry weight/fresh weight),"[8]; 0.0213 wt%, +15 cm from application",44.5 Pct
same,"Nonvolatile extractives, entire cross section","[8]; 0.0213 wt%, +15 cm",3.7 Pct
same,Dry weight (ovendry weight/fresh weight),"[8]; 0.0213 wt%, +50 cm from application",46.6 Pct
same,"Nonvolatile extractives, entire cross section","[8]; 0.0213 wt%, +50 cm",3.4 Pct
same,Dry weight (ovendry weight/fresh weight),"[8]; 0.0213 wt%, -15 cm from application",43.1 Pct
same,"Nonvolatile extractives, entire cross section","[8]; 0.0213 wt%, -15 cm",3.1 Pct
same,Dry weight (ovendry weight/fresh weight),"[8]; 0.213 wt%, +15 cm from application",44.8 Pct
same,"Nonvolatile extractives, entire cross section","[8]; 0.213 wt%, +15 cm",3.2 Pct
same,Dry weight (ovendry weight/fresh weight),"[8]; 0.213 wt%, -15 cm from application",45.5 Pct
same,"Nonvolatile extractives, entire cross section","[8]; 0.213 wt%, -15 cm",3.4 Pct
same,Dry weight (ovendry weight/fresh weight),[8]; [11],46.5 Pct
same,"Nonvolatile extractives, entire cross section",[8]; [11],3.4 Pct
same,Increase of extractive content versus water-treated controls,"[8]; 1.064 percent (wt.), red pine, 6 months",Doubling of the extractive content
same,Dry weight (ovendry weight/fresh weight),"[8]; 1.064 wt%, +50 cm from application",56.7 Pct
same,"Nonvolatile extractives, entire cross section","[8]; 1.064 wt%, +50 cm",7.2 Pct
same,"Nonvolatile extractives, visible lightwood portion","[8]; 1.064 wt%, +50 cm",18.8 Pct
same,Dry weight (ovendry weight/fresh weight),"[8]; 1.064 wt%, +110 cm from application",50.3 Pct
same,"Nonvolatile extractives, entire cross section","[8]; 1.064 wt%, +110 cm",3.4 Pct
same,Dry weight (ovendry weight/fresh weight),"[8]; 1.064 wt%, +150 cm from application",50.1 Pct
same,"Nonvolatile extractives, entire cross section","[8]; 1.064 wt%, +150 cm",3.8 Pct
same,Dry weight (ovendry weight/fresh weight),"[8]; 1.064 wt%, -15 cm from application",54.1 Pct
same,"Nonvolatile extractives, entire cross section","[8]; 1.064 wt%, -15 cm",4.0 Pct
same,Dry weight (ovendry weight/fresh weight),[8]; [12],58.9 Pct
same,"Nonvolatile extractives, entire cross section",[8]; [12],6.2 Pct
same,"Nonvolatile extractives, visible lightwood portion",[8]; [12],9.3 Pct
same,Dry weight (ovendry weight/fresh weight),"[8]; 2.127 wt%, +15 cm from application",67.8 Pct
same,"Nonvolatile extractives, entire cross section","[8]; 2.127 wt%, +15 cm",3.1 Pct
same,Dry weight (ovendry weight/fresh weight),"[8]; 2.127 wt%, +50 cm from application",69.7 Pct
same,"Nonvolatile extractives, entire cross section","[8]; 2.127 wt%, +50 cm",3.1 Pct
same,Dry weight (ovendry weight/fresh weight),"[8]; 2.127 wt%, -15 cm from application",66.5 Pct
same,"Nonvolatile extractives, entire cross section","[8]; 2.127 wt%, -15 cm",5.4 Pct
same,Change in dry weight percentage (oven dry weight/fresh weight),"[8]; treated trees, dehydration",increase in dry weight percentage
same,Increase in extractives in visibly lightered portions versus control trees,[8]; visible lightering portions of cross section,three to six times that of control trees
same,Effect on lightwood stimulation by diquat and paraquat,[5]; Example V combinations,increases the lightwood stimulating effects of diquat and paraquat
c1cc[n+]2c(c1)-c1cccc[n+]1CC2 [diquat],LD50 dosage,rats,100 mg/kg
same,Extractive content in total merchantable length,[1]; bipyridilium 0.5% (wt),15.2 lbs. extractives per average tree
same,Extractive content in total merchantable length,[1]; bipyridilium 2% (wt),17.3 lbs. extractives per average tree
same,Rosin yield,[3]; 0 m above wound,5.5 Pct
same,Rosin yield,[3]; 0.5 m above wound,2.1 Pct
same,Rosin yield,[3]; 1 m above wound,2.3 Pct
same,Height of oleoresin soaked wood (visible lightwood),[3]; in vivo,less than diquat plus 2-chloroethylphosphonic acid-treated trees
same,Oleoresin content,[4]; 0.5-1 m above wound,9.6%
same,Oleoresin content,[4]; 1-1.5 m above wound,4.5%
same,Oleoresin content,[4]; 1.5-2.5 m above wound,3.5%
same,Oleoresin content,[4]; 2.5-4.5 m above wound,2.8%
same,Oleoresin content,[4]; 4.5-6.5 m above wound,1.9%
same,Visible lightwood height,[4],2.5-3 meters
same,"Oleoresin content, average per unit total volume",[4],4.1%
same,Oleoresin content,[4]; [9],8.9%
same,Average lightwood height,[5]; [10],1.8 meters
same,Average lightwood height,[5]; bipyridilium 2% (wt) in total,3.1 meters
CCCN [n-propylamine],LD50 dosage,rats,560 mg/kg
C=C [ethylene],toxic concentration of gaseous ethylene,mice,"950,000 ppm"
